Measured values: ChEMBL document CHEMBL2311255, “Discovery of alkenylboronic acids as neuroprotective agents affecting multiple biological targets involved in Alzheimer's disease” (Bioorg Med Chem Lett, 2013)
Active and inactive are the calls of the source. No cut-off for these calls is given here.

Experiments:
SH-SY5Y [1] = test: Neuroprotective activity in human APP695-transfected SH-SY5Y cells assessed as inhibition of H2O2-induced ROS production at 5 uM after 60 mins by DCFA-DA assay; format: functional; conditions: 1 h
SH-SY5Y [2] = test: Neuroprotective activity in human APP695-transfected SH-SY5Y cells assessed as inhibition of ROS production at 5 uM after 60 mins by DCFA-DA assay; format: functional, cell-based
SH-SY5Y [3] = test: Neuroprotective activity in human APP695-transfected SH-SY5Y cells assessed as GSH-glutathione disulfide level after 16 hrs (reference value: 4.71 +/- 0.48 nmol/mg); format: functional
SH-SY5Y [4] = test: Neuroprotective activity in human APP695-transfected SH-SY5Y cells assessed as inhibition of H2O2-induced increase of caspase-3 activity after 60 mins by fluorescence assay; format: functional
SH-SY5Y [5] = test: Neuroprotective activity in human APP695-transfected SH-SY5Y cells assessed as decrease of malondialdehyde level after 16 hrs (reference value: 52 +/- 1.84 nmol/mg); format: functional
[6] = Cytotoxicity against human APP695-transfected SH-SY5Y cells at 10 uM after 24 hrs by MTT assay; format: cell-based
Acetylcholinesterase = test: Inhibition of AChE (unknown origin) measured for 3 mins by Ellman colorimetric method; conditions: Homo sapiens
SH-SY5Y [7] = test: Neuroprotective activity in human APP695-transfected SH-SY5Y cells assessed as inhibition of H2O2-induced decrease in glutathione level after 16 hrs (reference value: 22.95 +/- 0.59 nmol/mg); format: functional
SH-SY5Y [8] = test: Neuroprotective activity in human APP695-transfected SH-SY5Y cells assessed as increase of glutathione level after 16 hrs (reference value: 17.79 +/- 1.59 nmol/mg); format: functional
SH-SY5Y [9] = test: Neuroprotective activity in human APP695-transfected SH-SY5Y cells assessed as decrease of H2O2-induced malondialdehyde level after 16 hrs (reference value: 67.83 +/- 5.86 nmol/mg); format: functional
SH-SY5Y [10] = test: Neuroprotective activity in human APP695-transfected SH-SY5Y cells assessed as H2O2-induced GSH-glutathione disulfide level after 16 hrs (reference value: 6.85 +/- 0.92 nmol/mg); format: functional
SH-SY5Y [11] = test: Neuroprotective activity in human APP695-transfected SH-SY5Y cells assessed as inhibition of H2O2-induced ROS production after 60 mins by DCFA-DA assay; format: functional, cell-based; conditions: 1 h
[12] = target: Amyloid-beta precursor protein (Homo sapiens) (UniProt P05067); test: Inhibition of beta amyloid (25 to 35) (unknown origin) aggregation after 4 days by thioflavin-T fluorescence analysis
[13] = target: Amyloid-beta precursor protein (Homo sapiens) (UniProt P05067); test: Inhibition of beta amyloid (25 to 35) (unknown origin) disaggregation after 4 days by thioflavin-T fluorescence analysis
Beta-secretase 1 = Beta-secretase 1 (Homo sapiens, UniProt P56817); test: Inhibition of human recombinant BACE using H-RE-(EDANS)EVNLDAEFK(DABCYL)R-OH as substrate preincubated for 1 hr before addition of substrate measured after 1 hr
Chain of Beta-secretase 1 (P56817 whole entry): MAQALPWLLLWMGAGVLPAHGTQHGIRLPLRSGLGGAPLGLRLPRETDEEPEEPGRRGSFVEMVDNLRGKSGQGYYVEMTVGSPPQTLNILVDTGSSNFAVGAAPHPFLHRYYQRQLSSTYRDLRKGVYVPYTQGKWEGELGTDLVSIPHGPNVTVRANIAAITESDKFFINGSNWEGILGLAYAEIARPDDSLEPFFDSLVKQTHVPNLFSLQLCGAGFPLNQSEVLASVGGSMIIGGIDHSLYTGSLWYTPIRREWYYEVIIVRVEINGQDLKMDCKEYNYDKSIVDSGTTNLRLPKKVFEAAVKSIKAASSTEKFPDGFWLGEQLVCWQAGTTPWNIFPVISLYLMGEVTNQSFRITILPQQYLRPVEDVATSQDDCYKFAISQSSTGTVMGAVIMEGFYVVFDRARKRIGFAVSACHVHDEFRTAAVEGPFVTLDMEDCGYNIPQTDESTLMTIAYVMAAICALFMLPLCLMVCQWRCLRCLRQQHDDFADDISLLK

Chain of Amyloid-beta precursor protein (Homo sapiens) (P05067 whole entry): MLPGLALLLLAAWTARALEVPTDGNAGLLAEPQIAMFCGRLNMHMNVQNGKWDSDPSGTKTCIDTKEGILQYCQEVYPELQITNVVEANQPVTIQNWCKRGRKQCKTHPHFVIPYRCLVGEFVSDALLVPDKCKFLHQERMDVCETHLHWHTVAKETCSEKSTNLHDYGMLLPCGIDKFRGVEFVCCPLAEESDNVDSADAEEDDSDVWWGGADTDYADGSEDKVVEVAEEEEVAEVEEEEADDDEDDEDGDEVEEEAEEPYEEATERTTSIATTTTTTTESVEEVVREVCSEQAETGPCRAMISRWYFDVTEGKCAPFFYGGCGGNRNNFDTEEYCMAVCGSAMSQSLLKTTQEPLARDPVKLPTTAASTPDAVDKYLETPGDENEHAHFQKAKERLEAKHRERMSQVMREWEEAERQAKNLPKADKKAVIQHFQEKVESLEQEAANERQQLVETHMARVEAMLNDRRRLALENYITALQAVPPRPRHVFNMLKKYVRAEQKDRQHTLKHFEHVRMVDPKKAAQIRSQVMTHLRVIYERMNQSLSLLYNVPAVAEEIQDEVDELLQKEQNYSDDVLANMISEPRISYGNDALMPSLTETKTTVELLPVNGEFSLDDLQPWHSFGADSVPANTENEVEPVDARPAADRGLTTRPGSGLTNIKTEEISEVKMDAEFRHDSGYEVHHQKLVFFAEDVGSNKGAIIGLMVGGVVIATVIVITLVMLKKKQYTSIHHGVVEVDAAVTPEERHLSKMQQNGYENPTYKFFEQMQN

| Structure (SMILES) | inhibition at 5 µM (SH-SY5Y [1]) | inhibition (SH-SY5Y [2]) | Activity (SH-SY5Y [3]) | inhibition (INH) (SH-SY5Y [4]) | Activity (SH-SY5Y [5]) | Activity [6] | inhibition (Acetylcholinesterase) | Activity (SH-SY5Y [7]) | Activity (SH-SY5Y [8]) | Activity (SH-SY5Y [9]) | Activity (SH-SY5Y [10]) | IC50 (SH-SY5Y [11]) | Activity [12] | Activity [13] | IC50 (Beta-secretase 1) |
| --- | --- | --- | --- | --- | --- | --- | --- | --- | --- | --- | --- | --- | --- | --- | --- |
| CC1(C)OB(/C=C/c2cccc(C(F)(F)F)c2)OC1(C)C | < 50% | inactive | 5.53 nmol/mg | >50% | 44.03 nmol/mg | Non-toxic | inactive | 43.29 nmol/mg | 33.77 nmol/mg | 45.55 nmol/mg | 4.75 nmol/mg |  |  |  |  |
| CC1(C)OB(/C=C/c2ccccc2)OC1(C)C | < 50% | inactive | 3.87 nmol/mg |  | 40.71 nmol/mg | Non-toxic | inactive | 37.04 nmol/mg | 34.74 nmol/mg | 51.76 nmol/mg | 4.89 nmol/mg |  |  |  |  |
| OB(O)/C=C/c1ccc(F)cc1 | < 50% | inactive | 4.75 nmol/mg | >50% | 37.73 nmol/mg | Non-toxic | inactive | 27.42 nmol/mg | 28.19 nmol/mg | 52.64 nmol/mg | 4.58 nmol/mg |  |  |  |  |
| OB(O)/C=C/c1ccccc1 [STYRYLBORONIC ACID] |  | inactive | 4.6 nmol/mg |  | 42.22 nmol/mg | Non-toxic | inactive | 30.62 nmol/mg | 21.84 nmol/mg | 53.23 nmol/mg | 4.25 nmol/mg | 8.08 µM | inactive | inactive |  |
| OB(O)c1ccc(C(F)(F)F)cc1 | < 50% | inactive | 5.76 nmol/mg |  | 45.36 nmol/mg | Non-toxic | inactive | 26.59 nmol/mg | 23.32 nmol/mg | 73.23 nmol/mg | 5.85 nmol/mg |  |  |  |  |
| CCCCC/C=C/B(O)O | < 50% | inactive | 4.65 nmol/mg |  | 40.34 nmol/mg | Non-toxic | inactive | 27.22 nmol/mg | 27.35 nmol/mg | 59.21 nmol/mg | 3.94 nmol/mg |  |  |  |  |
| COc1cc(/C=C/B2OC(C)(C)C(C)(C)O2)cc(OC)c1 | < 50% | inactive | 4.49 nmol/mg |  | 48.18 nmol/mg | Non-toxic | inactive | 27.98 nmol/mg | 25.36 nmol/mg | 53.36 nmol/mg | 4.53 nmol/mg |  |  |  |  |
| COc1ccc(/C=C/B(O)O)cc1 | < 50% | inactive | 4.56 nmol/mg |  | 44.35 nmol/mg | Non-toxic | inactive | 26.05 nmol/mg | 26.2 nmol/mg | 58.76 nmol/mg | 6 nmol/mg |  |  |  |  |
| CN1CC(=O)OB(/C=C/c2ccccc2)OC(=O)C1 | < 50% | inactive | 6.11 nmol/mg |  | 41.96 nmol/mg | Non-toxic | inactive | 39.38 nmol/mg | 35.2 nmol/mg | 57.54 nmol/mg | 5.01 nmol/mg |  |  |  | 136 µM |
| OB(O)c1ccccc1 [PHENYLBORONIC ACID] | < 50% | inactive | 5.85 nmol/mg |  | 40.75 nmol/mg | Non-toxic | inactive | 28.01 nmol/mg | 28.62 nmol/mg | 52.78 nmol/mg | 4.85 nmol/mg |  |  |  |  |
| OB(O)/C=C/C1CCCCC1 | < 50% | inactive | 4.37 nmol/mg | >50% | 37.12 nmol/mg | Non-toxic | inactive | 35.58 nmol/mg | 24.06 nmol/mg | 45.38 nmol/mg | 6.03 nmol/mg |  |  |  |  |
| COc1cc(/C=C/B(O)O)cc(OC)c1 | < 50% | inactive | 4.7 nmol/mg |  | 42.79 nmol/mg | Non-toxic | inactive | 32.03 nmol/mg | 23.11 nmol/mg | 74.75 nmol/mg | 6.23 nmol/mg |  |  |  |  |
| OB(O)/C=C/c1ccc(C(F)(F)F)cc1 |  | inactive | 4.3 nmol/mg | >50% | 35.67 nmol/mg | Non-toxic | inactive | 27.02 nmol/mg | 31.48 nmol/mg | 38.23 nmol/mg | 4.47 nmol/mg | 2.85 µM | inactive | inactive |  |
| CC1(C)OB(/C=C/c2ccc(F)cc2F)OC1(C)C | < 50% | inactive | 5.33 nmol/mg |  | 39.76 nmol/mg | Non-toxic | inactive | 34.77 nmol/mg | 31.51 nmol/mg | 53.1 nmol/mg | 6.06 nmol/mg |  |  |  |  |
